# Measured values from PubChem BioAssay (NCI).
#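 Method: 48-hour compound exposure of cells in 96-well plates, five concentrations, linear interpolation of endpoints. At the TGI there is no net growth.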
# What was measured:
# Experiment in all cases: DTP human tumour cell line panel, 48 h
# OVCAR-8 ovarian = system: OVCAR-8 ovarian
# SK-MEL-2 melanoma = system: SK-MEL-2 melanoma
# HCT-15 colon = system: HCT-15 colon
# HL-60(TB) leukemia = system: HL-60(TB) leukemia
# SN12C renal = system: SN12C renal
# NCI-H226 lung = system: NCI-H226 lung
# K-562 leukemia = system: K-562 leukemia
# UO-31 renal = system: UO-31 renal
# SK-MEL-5 melanoma = system: SK-MEL-5 melanoma
# NCI-H460 lung = system: NCI-H460 lung
# NCI-H522 lung = system: NCI-H522 lung
# HOP-62 NSCLC = system: HOP-62 NSCLC
# UACC-257 melanoma = system: UACC-257 melanoma
# M14 melanoma = system: M14 melanoma
# LOX IMVI melanoma = system: LOX IMVI melanoma
# IGROV1 ovarian = system: IGROV1 ovarian
# XF 498 CNS = system: XF 498 CNS
# SW-620 colon = system: SW-620 colon
# RPMI-8226 leukemia = system: RPMI-8226 leukemia
# SK-OV-3 ovarian = system: SK-OV-3 ovarian
# OVCAR-3 ovarian = system: OVCAR-3 ovarian
# SK-MEL-28 melanoma = system: SK-MEL-28 melanoma
# MOLT-4 leukemia = system: MOLT-4 leukemia
# HT29 colon = system: HT29 colon
# KM12 colon = system: KM12 colon
# CCRF-CEM leukemia = system: CCRF-CEM leukemia
# HCT-116 colon = system: HCT-116 colon
# DMS 273 small cell lung = system: DMS 273 small cell lung
# M19-MEL melanoma = system: M19-MEL melanoma
# SF-539 CNS = system: SF-539 CNS
# UACC-62 melanoma = system: UACC-62 melanoma
# SF-295 CNS = system: SF-295 CNS
# ACHN renal = system: ACHN renal
# U251 CNS = system: U251 CNS
# HOP-18 NSCLC = system: HOP-18 NSCLC
# TK-10 renal = system: TK-10 renal
# MALME-3M melanoma = system: MALME-3M melanoma
# NCI-H23 lung = system: NCI-H23 lung
# SNB-75 CNS = system: SNB-75 CNS
# RXF 393 renal = system: RXF 393 renal
# 786-0 renal = system: 786-0 renal
# COLO 205 colon = system: COLO 205 colon
# DMS 114 small cell lung = system: DMS 114 small cell lung
# EKVX NSCLC = system: EKVX NSCLC
# SNB-19 CNS = system: SNB-19 CNS
# A549 NSCLC = system: A549 NSCLC
# OVCAR-5 ovarian = system: OVCAR-5 ovarian
# HOP-92 NSCLC = system: HOP-92 NSCLC
# LXFL 529 NSCLC = system: LXFL 529 NSCLC
# DLD-1 colon = system: DLD-1 colon
# SNB-78 CNS = system: SNB-78 CNS
# A498 renal = system: A498 renal
# KM20L2 colon = system: KM20L2 colon
# SF-268 CNS = system: SF-268 CNS
# HCC-2998 colon = system: HCC-2998 colon
compound,measurement,setting,value
CC(=O)NS(=O)(=O)c1ccc(NC(=O)COC(=O)c2cccc3c(=O)c4ccccc4[nH]c23)cc1,TGI,OVCAR-8 ovarian,> 100 µM
same,TGI,SK-MEL-2 melanoma,> 100 µM
same,TGI,HCT-15 colon,> 100 µM
same,TGI,HL-60(TB) leukemia,> 100 µM
same,TGI,SN12C renal,> 100 µM
same,TGI,NCI-H226 lung,> 100 µM
same,TGI,K-562 leukemia,> 100 µM
same,TGI,UO-31 renal,> 100 µM
same,TGI,SK-MEL-5 melanoma,> 100 µM
same,TGI,NCI-H460 lung,> 100 µM
same,TGI,NCI-H522 lung,> 100 µM
same,TGI,HOP-62 NSCLC,> 100 µM
same,TGI,UACC-257 melanoma,> 100 µM
same,TGI,M14 melanoma,> 100 µM
same,TGI,LOX IMVI melanoma,> 100 µM
same,TGI,IGROV1 ovarian,> 100 µM
same,TGI,XF 498 CNS,> 100 µM
same,TGI,SW-620 colon,> 100 µM
same,TGI,RPMI-8226 leukemia,> 100 µM
same,TGI,SK-OV-3 ovarian,> 100 µM
same,TGI,OVCAR-3 ovarian,> 100 µM
same,TGI,SK-MEL-28 melanoma,> 100 µM
same,TGI,MOLT-4 leukemia,> 100 µM
same,TGI,HT29 colon,> 100 µM
same,TGI,KM12 colon,> 100 µM
same,TGI,CCRF-CEM leukemia,> 100 µM
same,TGI,HCT-116 colon,> 100 µM
same,TGI,DMS 273 small cell lung,> 100 µM
same,TGI,M19-MEL melanoma,> 100 µM
same,TGI,SF-539 CNS,> 100 µM
same,TGI,UACC-62 melanoma,> 100 µM
same,TGI,SF-295 CNS,> 100 µM
same,TGI,ACHN renal,> 100 µM
same,TGI,U251 CNS,> 100 µM
same,TGI,HOP-18 NSCLC,> 100 µM
same,TGI,TK-10 renal,> 100 µM
same,TGI,MALME-3M melanoma,> 100 µM
same,TGI,NCI-H23 lung,> 100 µM
same,TGI,SNB-75 CNS,> 100 µM
same,TGI,RXF 393 renal,> 100 µM
same,TGI,786-0 renal,> 100 µM
same,TGI,COLO 205 colon,> 100 µM
same,TGI,DMS 114 small cell lung,> 100 µM
same,TGI,EKVX NSCLC,> 100 µM
same,TGI,SNB-19 CNS,> 100 µM
same,TGI,A549 NSCLC,> 100 µM
C[Si](C)(C)/C=C/CCC(C=O)(CCCl)c1ccccc1 (stereo not drawn),TGI,OVCAR-8 ovarian,87 µM
same,TGI,SK-MEL-2 melanoma,29.7 µM
same,TGI,HCT-15 colon,46.1 µM
same,TGI,HL-60(TB) leukemia,> 100 µM
same,TGI,SN12C renal,> 100 µM
same,TGI,K-562 leukemia,> 100 µM
same,TGI,UO-31 renal,> 100 µM
same,TGI,SK-MEL-5 melanoma,33.9 µM
same,TGI,OVCAR-5 ovarian,97.7 µM
same,TGI,HOP-92 NSCLC,89.1 µM
same,TGI,NCI-H460 lung,> 100 µM
same,TGI,NCI-H522 lung,35.6 µM
same,TGI,UACC-257 melanoma,75.8 µM
same,TGI,LXFL 529 NSCLC,> 100 µM
same,TGI,M14 melanoma,86.6 µM
same,TGI,LOX IMVI melanoma,36.2 µM
same,TGI,IGROV1 ovarian,> 100 µM
same,TGI,DLD-1 colon,> 100 µM
same,TGI,SNB-78 CNS,78.9 µM
same,TGI,XF 498 CNS,36 µM
same,TGI,SW-620 colon,> 100 µM
same,TGI,SK-OV-3 ovarian,> 100 µM
same,TGI,OVCAR-3 ovarian,38.1 µM
same,TGI,SK-MEL-28 melanoma,> 100 µM
same,TGI,MOLT-4 leukemia,53.8 µM
same,TGI,HT29 colon,36 µM
same,TGI,KM12 colon,> 100 µM
same,TGI,CCRF-CEM leukemia,> 100 µM
same,TGI,HCT-116 colon,32.3 µM
same,TGI,A498 renal,> 100 µM
same,TGI,DMS 273 small cell lung,55.2 µM
same,TGI,KM20L2 colon,> 100 µM
same,TGI,M19-MEL melanoma,> 100 µM
same,TGI,SF-539 CNS,> 100 µM
same,TGI,UACC-62 melanoma,55.5 µM
same,TGI,SF-295 CNS,57.2 µM
same,TGI,SF-268 CNS,> 100 µM
same,TGI,HCC-2998 colon,> 100 µM
same,TGI,ACHN renal,73.2 µM
same,TGI,U251 CNS,33 µM
same,TGI,HOP-18 NSCLC,80 µM
same,TGI,TK-10 renal,> 100 µM
same,TGI,MALME-3M melanoma,52.7 µM
same,TGI,NCI-H23 lung,> 100 µM
same,TGI,SNB-75 CNS,96.6 µM
same,TGI,RXF 393 renal,54.6 µM
same,TGI,786-0 renal,40.8 µM
same,TGI,COLO 205 colon,85.4 µM
same,TGI,DMS 114 small cell lung,54.9 µM
same,TGI,EKVX NSCLC,> 100 µM
same,TGI,SNB-19 CNS,> 100 µM
same,TGI,A549 NSCLC,98.4 µM
